Assay: xn = mol fraction of the nth substance listed
Conditions: 101 kPa, Liquid

CN(C)C=O [dimethylformamide] + c1ccccc1
Conditions | mass density [kg/m3]
293.15 K, x2 = 0 | 948.58
293.15 K, x2 = 0.0785 | 943.13
293.15 K, x2 = 0.1347 | 939.28
293.15 K, x2 = 0.2036 | 934.59
293.15 K, x2 = 0.2699 | 930.11
293.15 K, x2 = 0.3352 | 925.71
293.15 K, x2 = 0.4034 | 921.13
293.15 K, x2 = 0.4874 | 915.49
293.15 K, x2 = 0.5432 | 911.72
293.15 K, x2 = 0.6044 | 907.55
293.15 K, x2 = 0.6705 | 903
293.15 K, x2 = 0.7413 | 898.06
293.15 K, x2 = 0.8056 | 893.49
293.15 K, x2 = 0.871 | 888.73
293.15 K, x2 = 0.9214 | 884.99
293.15 K, x2 = 0.9785 | 880.66
303.15 K, x2 = 0 | 939.46
303.15 K, x2 = 0.0689 | 934.59
303.15 K, x2 = 0.1354 | 929.93
303.15 K, x2 = 0.2037 | 925.19
303.15 K, x2 = 0.2701 | 920.6
303.15 K, x2 = 0.3387 | 915.87
303.15 K, x2 = 0.407 | 911.17
303.15 K, x2 = 0.4735 | 906.6
303.15 K, x2 = 0.5403 | 901.98
303.15 K, x2 = 0.6054 | 897.43
303.15 K, x2 = 0.6791 | 892.23
303.15 K, x2 = 0.7441 | 887.56
303.15 K, x2 = 0.81 | 882.75
303.15 K, x2 = 0.8741 | 877.97
303.15 K, x2 = 0.9245 | 874.12
303.15 K, x2 = 0.9784 | 869.92
313.15 K, x2 = 0 | 930.12
313.15 K, x2 = 0.0655 | 925.37
313.15 K, x2 = 0.1357 | 920.35
313.15 K, x2 = 0.2019 | 915.66
313.15 K, x2 = 0.2684 | 910.98
313.15 K, x2 = 0.336 | 906.21
313.15 K, x2 = 0.4063 | 901.26
313.15 K, x2 = 0.4726 | 896.57
313.15 K, x2 = 0.5367 | 892.03
313.15 K, x2 = 0.6038 | 887.24
313.15 K, x2 = 0.6792 | 881.8
313.15 K, x2 = 0.738 | 877.51
313.15 K, x2 = 0.8119 | 872.03
313.15 K, x2 = 0.873 | 867.4
313.15 K, x2 = 0.9314 | 862.88
313.15 K, x2 = 0.98 | 859.02
323.15 K, x2 = 0 | 920.55
323.15 K, x2 = 0.0785 | 914.76
323.15 K, x2 = 0.1359 | 910.58
323.15 K, x2 = 0.2021 | 905.79
323.15 K, x2 = 0.2687 | 901.01
323.15 K, x2 = 0.3364 | 896.14
323.15 K, x2 = 0.4066 | 891.09
323.15 K, x2 = 0.4735 | 886.28
323.15 K, x2 = 0.5415 | 881.37
323.15 K, x2 = 0.6092 | 876.44
323.15 K, x2 = 0.6736 | 871.72
323.15 K, x2 = 0.7453 | 866.4
323.15 K, x2 = 0.8089 | 861.6
323.15 K, x2 = 0.8797 | 856.16
323.15 K, x2 = 0.9374 | 851.62
323.15 K, x2 = 0.9777 | 848.38
333.15 K, x2 = 0 | 910.75
333.15 K, x2 = 0.0695 | 905.54
333.15 K, x2 = 0.1354 | 900.67
333.15 K, x2 = 0.2026 | 895.73
333.15 K, x2 = 0.2701 | 890.79
333.15 K, x2 = 0.3321 | 886.27
333.15 K, x2 = 0.4042 | 881.01
333.15 K, x2 = 0.475 | 875.82
333.15 K, x2 = 0.5487 | 870.41
333.15 K, x2 = 0.6014 | 866.51
333.15 K, x2 = 0.6758 | 860.97
333.15 K, x2 = 0.7371 | 856.36
333.15 K, x2 = 0.8142 | 850.48
333.15 K, x2 = 0.8809 | 845.28
333.15 K, x2 = 0.9398 | 840.58
333.15 K, x2 = 0.9785 | 837.43
343.15 K, x2 = 0 | 900.73
343.15 K, x2 = 0.0577 | 896.35
343.15 K, x2 = 0.1155 | 892
343.15 K, x2 = 0.1728 | 887.74
343.15 K, x2 = 0.2388 | 882.84
343.15 K, x2 = 0.299 | 878.39
343.15 K, x2 = 0.3652 | 873.49
343.15 K, x2 = 0.4202 | 869.41
343.15 K, x2 = 0.504 | 863.2
343.15 K, x2 = 0.5606 | 858.98
343.15 K, x2 = 0.6275 | 853.95
343.15 K, x2 = 0.6963 | 848.75
343.15 K, x2 = 0.7585 | 844
343.15 K, x2 = 0.8187 | 839.33
343.15 K, x2 = 0.8814 | 834.39
343.15 K, x2 = 0.9584 | 828.16

Reference: the NIST ThermoML archive (doi:10.1016/j.jct.2006.07.022)
